Molecule `Cc1ccc(Nc2cc(C)nc(-n3nc(C)cc3C)n2)cc1` registered a melting point of 135 to 138 °C.

Consider `O=C1Nc2ccc([N+](=O)[O-])cc2C12OCCCO2`, for which the melting point is 155 to 168 °C.

For the molecule `Cc1ccc(C)n1-c1cc2c(cc1C(F)(F)F)[nH]c(=O)c(=O)n2CC(=O)NCc1ccccc1`, the melting point is more than 250 °C.

`CCCN(CCc1ccccc1)CCc1cccc2[nH]c(=O)[nH]c12` returned a melting point of 176 to 177 °C.

`COc1cc2c(cc1OC)CC(C#N)=C2` returned a melting point of 140 to 141 °C.

`COc1ccc(N2CCN(c3ccc(OC)nc3-c3ccc(N(C)C)cc3)CC2)cc1` had a melting point of 163 to 165 °C.

`COc1cc(C(C)(C)CC(C)(C)C)c(OC)cc1C(=O)CCC(=O)O` yielded a melting point of 142 °C.

As to `Cc1nn(C)c2nc(C(C)C)c(CO)c(-c3ccc(F)cc3)c12`, the melting point lay within 166 to 168 °C.

Molecule `N#Cc1cc(-c2ccccn2)nn1-c1ccc(NC(=O)c2ccncc2F)cc1` came in with a melting point of 118 to 119 °C.

`Cc1nc(N)c2nc(C)n(NC3CCCCC3)c2c1C` returned a melting point of 242 to 244 °C.

Molecule `CCCCCCCCNc1nc(Cl)nc(NCCCCCCCC)n1` came in with a melting point of 171 to 172 °C.

With `CCn1nc2c(N)nc3ccccc3c2c1CC(C)C`, the melting point fell in the range of 208 to 209 °C.

Molecule `O=C(CCl)N1CCC(Cc2ccc(F)cc2)CC1` showed a melting point of 85 to 87 °C.

In the case of `O=C(O)c1cccc(-c2ccc3c(c2)C(Oc2cccc(C(F)(F)F)c2)CC3)c1` (stereo not given), the melting point lay in the range of 175 to 185 °C.

`CCOC(=O)c1noc(-c2ccc([N+](=O)[O-])cc2)n1` had a melting point of 75 to 77 °C.

`CCc1cc(CCc2nc3ccccc3o2)c(=O)[nH]c1C` registered a melting point of 155 to 156 °C.

Turning to `Fc1cccc2c1CN(NC1=NCCN1)C2`, the melting point lay within 168 to 170 °C.

For the molecule `CCOC(=O)c1[nH]c(C)c(C)c1OCC1CO1` (stereo not given), the melting point was 70 to 71 °C.

Molecule `O=C1CC2(CCN(Cc3ccccc3)CC2)C(=O)N1OCc1ccccc1` returned a melting point of 146 to 152 °C.

Turning to `CC1=NS(=O)(=O)N(C)C(Oc2cccnc2)=N1`, the melting point was 137 to 138 °C.

The molecule `COC1=CC(=O)c2c(C)cccc2C1=O` registered a melting point of 138 to 140 °C.

Regarding `CCC/C(=C\C=C\C(=O)O)c1ccc(OC)cc1`, the melting point was in the range of 151 to 152 °C.

`O=C(CCl)Nc1ccc(C(=O)N2CCc3cc(S(=O)(=O)n4cc(-c5ccccc5)[nH]c4=O)ccc32)cc1` came in with a melting point of 188 to 189 °C.

`c1ccc(-c2nc3n(c2-c2ccccn2)CCS3)nc1` gave a melting point of 142 to 143 °C.

For the molecule `CC(CN(O)C(N)=O)OCc1ccco1` (stereo not given), the melting point was 59 to 62 °C.

`CC(Cc1c[nH]c2ccccc12)NC(=O)C=C1CCC(c2ccccc2)(N(C)C)CC1` (stereo not given) yielded a melting point of 184 to 187 °C.

For the molecule `CON=C(C(N)=O)c1cnccn1`, the melting point lay within 188 to 190 °C.

As to `CCOP(=O)(NCc1ccc2c(c1)-c1n[nH]c(=O)c3cccc(c13)O2)OCC`, the melting point was 222 to 224 °C.

With `O=C(CNC(=O)OCc1ccc([N+](=O)[O-])cc1)Oc1ccc(C(=O)OCI)cc1`, the melting point is 146 to 148 °C.

Regarding `CCN(CCCCNC(=O)c1ccc2ccccc2c1)C1CCc2ncsc2C1` (stereo not given), the melting point came to 120 °C.

`CN(C)C1CCc2[nH]c3cc(OCc4ccccc4)ccc3c2C1` (stereo not given) returned a melting point of 237 to 239 °C.

On to `COc1ccc(C(=O)Nc2ccccc2)c2c1OCC2CC(=O)OCc1ccccc1` (stereo not given), for which the melting point lay within 179 to 180 °C.

In turn, `CC(=O)Nc1cnc(N2CCN(CCCC(=O)c3ccc(F)cc3)CC2)cc1NC(C)=O` yielded a melting point of 206 to 209 °C.

Regarding `CC(=O)Oc1ccc(NC(C)=C2C(=O)OC(=O)C(C(C)=O)=C2O)cc1`, the melting point lay within 199 to 201 °C.

Take `N#Cc1ccc(OC(Cc2ccc(OCCNC(=O)c3ccc(-c4ccccn4)cc3)cc2)C(=O)O)cc1` (stereo not given): the melting point fell in the range of 92 to 93 °C.

Turning to `O=C1C(=CO)CSc2c(Cl)cccc21`, the melting point was in the range of 97 to 99 °C.

In turn, `CCC1(CO)Cc2cc(OCC(=O)O)c(Cl)c(Cl)c2C1=O` (stereo not given) displayed a melting point of 155 to 157 °C.

In turn, `Oc1ncc(-c2ccccc2)cn1` had a melting point of 239 to 241 °C.

With `Cc1oc(-c2ccco2)nc1COc1ccc(Cn2cc(CCC(=O)O)c(-c3ccccc3)n2)cc1`, the melting point was 152 to 153 °C.

On to `COC(=O)c1ccccc1C1=NC(C)C(=S)N1` (stereo not given), for which the melting point was 134 to 138 °C.

`COc1cc(C=CC(=O)c2ccc(I)cc2O)cc(OC)c1OCc1ccccc1`: the melting point was in the range of 124 to 125 °C.

Turning to `CCOC(=O)c1ccc(C#CC(=O)Nc2ccccc2)cc1`, the melting point lay in the range of 114 to 115 °C.

For the molecule `CNC(=NC#N)NCCSc1nccc(NC(N)=NCC(F)(F)F)n1`, the melting point was in the range of 218 to 221 °C.

Molecule `C=C(CO)COCCCCCCCCCCCCCCCC` returned a melting point of 34 °C.

In turn, `O=C(NCCCCCCCCn1ccnc1)c1ccc(Cl)nc1` displayed a melting point of 79 to 81 °C.

`COc1ccc(CN2CCc3c(c(=O)oc4cc(OC)ccc34)C2)cc1`: the melting point lay within 101 to 103 °C.

`CCCCNC1CC(C)(C)N(c2nc(N3CCOCC3)nc(N3CCOCC3)n2)C(C)(C)C1`: the melting point fell in the range of 82 to 87 °C.

The molecule `COc1cc(OC)nc(NC(=O)NS(=O)(=O)c2ccccc2C=C2CCOC2=O)n1` gave a melting point of 185 to 190 °C.

The molecule `O=S(=O)(NCCCCCCCCCCCCBr)c1ccc(Cl)cc1` showed a melting point of 70 to 73 °C.

With `O=C(N[C@H](Cc1ccc(C(F)(F)F)cc1)[C@@H](O)c1ccc(F)cc1)c1ccc(Oc2ccccc2)cc1` (racemic), the melting point is 186 to 187 °C.

`CN(C)Cc1cccc(Cc2cnc(N[N+](=O)[O-])[nH]c2=O)c1` displayed a melting point of 232 to 235 °C.

Consider `Cn1nc(-c2cnc(N)nc2-c2ccco2)ccc1=O`, for which the melting point worked out at 234 °C.

On to `c1ccc2nc(COc3ccc(Cc4nnn[nH]4)cc3)ccc2c1`, for which the melting point was 173 to 175 °C.

Molecule `CN1C(=O)c2c(-c3ccccc3)noc2CC1c1ccccc1` (stereo not given) yielded a melting point of 108 to 111 °C.

`CC(C)(C)NCC(Cc1ccc(OCc2ccccc2)cc1)NCc1ccc(C(C)(C)C)cc1` (stereo not given) registered a melting point of 63 to 65 °C.

In turn, `CC(C)c1ccc(-c2ccc3c(c2)C=C(C(=O)Nc2ccc(CN(C)C4CCOCC4)cc2)CCS3(=O)=O)cc1` gave a melting point of 240 to 247 °C.

Molecule `CC1(C)CC(OC(=O)c2ccccc2)CC(C)(C)N1OCC=Cc1ccccc1` displayed a melting point of 115 to 116 °C.

The molecule `O=C(c1ccccc1)N1CCN2c3ccccc3Cn3cccc3C2C1` (stereo not given) gave a melting point of 137 to 139 °C.

`CCN1c2ncccc2C(=O)N(C)c2ccc(O)nc21` returned a melting point of 215 to 218 °C.

On to `C/C(=C\Cn1oc(=O)[nH]c1=O)c1cccc(OCc2nc(-c3ccccc3)oc2C)c1`, for which the melting point fell in the range of 118 to 119 °C.

`CCS(=O)(=O)CCC(=O)NNC(=O)N1Cc2cccc(Cl)c2Oc2ccccc21` gave a melting point of 195 to 197 °C.

`CCNC(=S)n1nc(Oc2ncc(C(F)(F)F)cc2Cl)cc1C` registered a melting point of 74 to 75 °C.

Consider `CCCCCOc1cc2c(cc1/C=C/c1ccc(C(=O)O)cc1)C(C)(C)CCC2(C)C`, for which the melting point was 148 to 149 °C.

Take `Nc1nc(Cl)c2ncn(CC3CCOCO3)c2n1` (stereo not given): the melting point is 169 to 170 °C.

In turn, `Cc1cccc2c1c(C(=O)CC1CCCCCC1)cn2CCO` returned a melting point of 98 to 104 °C.

The term melting point denotes the temperature of the solid-liquid transition.

The values above are taken from a melting point compilation (Tetko et al.; mined from patent text by program, amines drawn as free bases though some values may be those of a salt).
